Laboratory results reported in patent publication US12227488B2, “Small molecule degraders of Helios and methods of use” (DANA-FARBER CANCER INSTITUTE, INC., priority 2018, dated 2025).

What was measured:
IKZF2 = test: Cellular degradation assay, eGFP-IKZF2Δ fusion with mCherry reporter in Flp-In 293 cells; type: cell-based; settings: 5 h incubation, n=1
Method in brief: (§1)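 DC50,5 h derived by variable-slope nonlinear fit of the per-well ratio of GFP-positive to mCherry-positive cells, imaged after 5 h compound exposure at 0.5% DMSO.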

GSPT1 = GSPT1 (Homo sapiens, UniProt P15170+Q96SW2); test: Cellular degradation assay, eGFP-GSPT1 fusion with mCherry reporter in Flp-In 293 cells; type: cell-based; set-up: expressed in transfected cells; host or cells: Flp-In 293; settings: 5 h incubation, n=1
Method in brief: as §1

CRBN and Helios (IKZF2) = target: T1, CRBN and Helios (IKZF2) (Homo sapiens, UniProt Q96SW2+Q9UKS7); test: TR-FRET dimerization assay (CRBN-IKZF2 ternary complex formation); type: binding; settings: n=1
T1 construct: His (N); Strep (N)
Method in brief: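 Compound-induced IKZF2 recruitment to CRBN was read as the 520/490 nm TR-FRET ratio after 15 min at rt. The mix held biotinylated IKZF2, BODIPY-labeled CRBN bound to DDB1 lacking the BPB propeller, tracer Tb-streptavidin and compound titrations; n=1, from ≥3 technical replicates per well.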

IKZF1 = target: T2, IKZF1 (Homo sapiens, UniProt Q13422); test: Cellular degradation assay, eGFP-IKZF1Δ fusion with mCherry reporter in Flp-In 293 cells; type: cell-based; settings: 5 h incubation, n=1
T2 construct: expressed in transfected cells; host or cells: Flp-In 293
Method in brief: as §1

SALL4 ZNF1-2 = target: T3, SALL4 ZNF1-2 (Homo sapiens, UniProt Q96SW2+Q9UJQ4); test: Cellular degradation assay, eGFP-SALL4 ZnF1-2 fusion with mCherry reporter in Flp-In 293 cells; type: cell-based; settings: 5 h incubation, n=1
T3 construct: IKZF1Δ, IKZF2Δ, GSPT1 and SALL4 ZnF1-2 were subcloned; expressed in transfected cells; host or cells: Flp-In 293
Method in brief: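 Read-out is the ratio of GFP-positive to mCherry-positive cells per well, imaged at 488 and 561 nm right after 5-hour compound exposure (normalised to 0.5% DMSO). Cells: Flp-In 293 stably carrying eGFP-P2A-mCherry construct fused to SALL4 ZnF1-2.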

[1] = compound concentration 2.00E−05
[2] = compound concentration 2.00E−06
[3] = compound concentration 2.00E−07
[4] = compound concentration 6.6667E−05
[5] = compound concentration 6.6667E−06
[6] = compound concentration 6.6667E−07 (667 nM)

T2 sequence (Q13422 83-213 isoform Q13422-7 limits assumed): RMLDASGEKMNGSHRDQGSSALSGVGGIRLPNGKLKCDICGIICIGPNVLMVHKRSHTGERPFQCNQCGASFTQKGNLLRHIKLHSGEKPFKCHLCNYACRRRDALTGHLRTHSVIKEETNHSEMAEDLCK
T2 sequence (Q96SW2 whole entry partner, the tested form may be a part): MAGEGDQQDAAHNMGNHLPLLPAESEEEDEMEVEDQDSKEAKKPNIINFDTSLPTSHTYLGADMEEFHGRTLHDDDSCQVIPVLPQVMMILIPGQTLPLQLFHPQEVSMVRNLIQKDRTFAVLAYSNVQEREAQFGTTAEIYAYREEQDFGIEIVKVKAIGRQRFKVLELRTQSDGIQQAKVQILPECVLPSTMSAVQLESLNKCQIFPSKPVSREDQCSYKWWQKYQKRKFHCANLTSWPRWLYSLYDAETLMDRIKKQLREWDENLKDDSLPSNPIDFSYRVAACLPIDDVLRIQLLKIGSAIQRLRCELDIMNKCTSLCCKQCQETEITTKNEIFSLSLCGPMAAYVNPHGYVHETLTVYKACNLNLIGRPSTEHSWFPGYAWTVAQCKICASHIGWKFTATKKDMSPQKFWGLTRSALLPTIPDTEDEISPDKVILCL
T2 sequence (Q16531 2-1140 partner limits assumed): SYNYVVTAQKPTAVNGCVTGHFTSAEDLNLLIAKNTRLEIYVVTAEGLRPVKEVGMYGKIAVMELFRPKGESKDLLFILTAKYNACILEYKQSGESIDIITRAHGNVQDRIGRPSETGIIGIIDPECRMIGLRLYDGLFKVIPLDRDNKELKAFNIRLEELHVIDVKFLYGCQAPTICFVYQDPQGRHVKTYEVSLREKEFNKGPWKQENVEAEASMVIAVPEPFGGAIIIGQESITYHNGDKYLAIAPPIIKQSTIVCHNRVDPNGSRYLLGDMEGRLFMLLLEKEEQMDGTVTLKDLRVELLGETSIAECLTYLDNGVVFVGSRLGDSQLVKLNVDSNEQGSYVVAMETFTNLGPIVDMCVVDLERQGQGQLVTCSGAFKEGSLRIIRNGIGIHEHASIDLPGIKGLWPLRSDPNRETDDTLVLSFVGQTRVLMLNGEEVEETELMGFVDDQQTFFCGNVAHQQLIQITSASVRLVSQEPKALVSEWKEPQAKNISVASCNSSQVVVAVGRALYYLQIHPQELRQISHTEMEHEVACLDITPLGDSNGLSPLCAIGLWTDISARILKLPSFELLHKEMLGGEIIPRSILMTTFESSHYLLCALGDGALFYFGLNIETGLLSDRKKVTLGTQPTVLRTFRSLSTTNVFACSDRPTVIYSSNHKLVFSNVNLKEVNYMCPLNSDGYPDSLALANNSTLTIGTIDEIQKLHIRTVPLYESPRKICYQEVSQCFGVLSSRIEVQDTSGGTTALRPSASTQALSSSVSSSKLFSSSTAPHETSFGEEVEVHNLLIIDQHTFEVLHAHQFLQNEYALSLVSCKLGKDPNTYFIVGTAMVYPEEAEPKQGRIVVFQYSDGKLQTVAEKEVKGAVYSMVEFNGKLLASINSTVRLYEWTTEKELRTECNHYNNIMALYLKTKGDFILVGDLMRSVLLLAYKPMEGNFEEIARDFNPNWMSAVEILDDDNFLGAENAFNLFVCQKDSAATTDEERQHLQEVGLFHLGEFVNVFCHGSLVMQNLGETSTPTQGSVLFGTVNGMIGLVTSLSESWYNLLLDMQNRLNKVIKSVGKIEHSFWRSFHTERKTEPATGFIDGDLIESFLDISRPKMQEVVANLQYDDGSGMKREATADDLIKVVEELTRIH
T3 sequence (Q9UJQ4 378-438 limits assumed): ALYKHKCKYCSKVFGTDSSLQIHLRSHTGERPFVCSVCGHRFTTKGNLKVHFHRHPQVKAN
T3 sequence (Q96SW2 whole entry, the tested form may be a part): as the sequence (Q96SW2 whole entry partner, the tested form may be a part) above
T3 sequence (Q16531 whole entry partner, the tested form may be a part): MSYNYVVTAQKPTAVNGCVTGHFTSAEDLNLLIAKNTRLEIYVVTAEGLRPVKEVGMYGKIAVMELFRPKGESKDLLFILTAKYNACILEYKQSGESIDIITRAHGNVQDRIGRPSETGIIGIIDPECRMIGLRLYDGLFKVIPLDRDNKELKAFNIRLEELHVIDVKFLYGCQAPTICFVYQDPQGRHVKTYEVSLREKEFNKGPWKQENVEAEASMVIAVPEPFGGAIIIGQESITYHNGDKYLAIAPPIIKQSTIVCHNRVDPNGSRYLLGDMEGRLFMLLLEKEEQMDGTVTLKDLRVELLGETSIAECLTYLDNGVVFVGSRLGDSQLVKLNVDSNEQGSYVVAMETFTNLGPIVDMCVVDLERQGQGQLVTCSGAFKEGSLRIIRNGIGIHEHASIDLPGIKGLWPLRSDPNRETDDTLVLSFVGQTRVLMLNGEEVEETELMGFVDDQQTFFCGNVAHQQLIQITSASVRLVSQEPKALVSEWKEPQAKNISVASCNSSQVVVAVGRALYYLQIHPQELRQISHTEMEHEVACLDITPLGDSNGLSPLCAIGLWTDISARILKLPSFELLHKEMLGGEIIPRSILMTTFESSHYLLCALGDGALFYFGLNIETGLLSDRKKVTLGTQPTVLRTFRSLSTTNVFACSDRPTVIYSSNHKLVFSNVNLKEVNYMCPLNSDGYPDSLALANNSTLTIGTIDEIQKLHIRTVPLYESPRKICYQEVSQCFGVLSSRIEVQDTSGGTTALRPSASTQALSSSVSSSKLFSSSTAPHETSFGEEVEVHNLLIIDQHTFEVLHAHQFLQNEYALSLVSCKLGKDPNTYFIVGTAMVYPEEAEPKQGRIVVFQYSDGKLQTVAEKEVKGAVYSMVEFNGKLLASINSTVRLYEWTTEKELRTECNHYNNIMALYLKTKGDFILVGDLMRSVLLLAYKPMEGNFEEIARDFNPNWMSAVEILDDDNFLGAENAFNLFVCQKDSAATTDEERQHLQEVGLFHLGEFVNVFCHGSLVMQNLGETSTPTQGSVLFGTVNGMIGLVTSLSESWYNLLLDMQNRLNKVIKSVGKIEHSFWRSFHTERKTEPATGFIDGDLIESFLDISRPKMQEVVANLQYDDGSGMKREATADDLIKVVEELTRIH
T1 sequence (Q96SW2 whole entry): as the sequence (Q96SW2 whole entry partner, the tested form may be a part) above
T1 sequence (Q9UKS7 whole entry): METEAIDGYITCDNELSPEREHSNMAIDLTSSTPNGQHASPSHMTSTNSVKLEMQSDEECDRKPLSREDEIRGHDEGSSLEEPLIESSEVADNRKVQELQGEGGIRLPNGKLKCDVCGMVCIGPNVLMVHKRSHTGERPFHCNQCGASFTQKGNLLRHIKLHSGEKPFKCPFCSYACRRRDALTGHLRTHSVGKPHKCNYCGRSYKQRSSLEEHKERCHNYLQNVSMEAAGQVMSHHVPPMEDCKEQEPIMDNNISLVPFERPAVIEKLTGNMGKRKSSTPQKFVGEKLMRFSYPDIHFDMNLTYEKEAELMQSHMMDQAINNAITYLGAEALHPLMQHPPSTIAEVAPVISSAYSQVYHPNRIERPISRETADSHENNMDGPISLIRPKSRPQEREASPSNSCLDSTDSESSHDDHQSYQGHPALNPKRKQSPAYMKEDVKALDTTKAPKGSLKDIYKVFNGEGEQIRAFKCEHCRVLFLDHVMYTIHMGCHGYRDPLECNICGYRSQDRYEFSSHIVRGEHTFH
Chain of GSPT1 (P15170 whole entry, the tested form may be a part): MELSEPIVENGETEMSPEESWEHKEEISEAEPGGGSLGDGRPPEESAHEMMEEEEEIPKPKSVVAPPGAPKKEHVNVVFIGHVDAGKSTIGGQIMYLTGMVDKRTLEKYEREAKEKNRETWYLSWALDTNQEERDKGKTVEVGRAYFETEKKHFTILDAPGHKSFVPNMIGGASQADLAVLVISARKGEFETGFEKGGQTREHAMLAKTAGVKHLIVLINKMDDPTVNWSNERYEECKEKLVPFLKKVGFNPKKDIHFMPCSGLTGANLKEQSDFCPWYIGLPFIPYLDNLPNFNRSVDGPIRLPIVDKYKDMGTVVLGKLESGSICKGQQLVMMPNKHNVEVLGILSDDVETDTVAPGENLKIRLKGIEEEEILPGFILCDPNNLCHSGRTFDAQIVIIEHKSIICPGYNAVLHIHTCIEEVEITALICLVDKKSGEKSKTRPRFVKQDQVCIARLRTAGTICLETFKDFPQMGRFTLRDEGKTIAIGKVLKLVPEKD
Chain of GSPT1 (Q96SW2 whole entry, the tested form may be a part): as the sequence (Q96SW2 whole entry partner, the tested form may be a part) above
Chain of GSPT1 (Q16531 whole entry partner, the tested form may be a part): as the sequence (Q16531 whole entry partner, the tested form may be a part) above

O=C1CCC(N2C(=O)C=C(Nc3cccc(-c4cc[nH]n4)c3)C2=O)C(=O)N1 (stereo not drawn) [Compound 31, 3-(3-((3-(1H-pyrazol-3-yl)phenyl)amino)-2,5-dioxo-2,5-dihydro-1H-pyrrol-1-yl)piperidine-2,6-dione]
IKZF2 GFP/RFP Relative Abundance (IKZF2; [1]): 0.494
IKZF2 GFP/RFP Relative Abundance (IKZF2; [2]): 0.638
IKZF2 GFP/RFP Relative Abundance (IKZF2; [3]): 0.766
GSPT1 GFP/RFP Relative Abundance (GSPT1; [1]): 0.666
GSPT1 GFP/RFP Relative Abundance (GSPT1; [2]): 1.197
GSPT1 GFP/RFP Relative Abundance (GSPT1; [3]): 1.240
TR-FRET-IKZF2 (Normalized to CC-885) (CRBN and Helios (IKZF2); [4]): 0.628
TR-FRET-IKZF2 (Normalized to CC-885) (CRBN and Helios (IKZF2); [5]): 0.521
TR-FRET-IKZF2 (Normalized to CC-885) (CRBN and Helios (IKZF2); [6]): 0.434
IKZF1 GFP/RFP Relative Abundance (IKZF1; [1]): 0.254
IKZF1 GFP/RFP Relative Abundance (IKZF1; [2]): 0.290
IKZF1 GFP/RFP Relative Abundance (IKZF1; [3]): 0.399
SALL4 ZNF1-2 GFP/RFP Relative Abundance (SALL4 ZNF1-2; [1]): 0.755
SALL4 ZNF1-2 GFP/RFP Relative Abundance (SALL4 ZNF1-2; [2]): 0.626
SALL4 ZNF1-2 GFP/RFP Relative Abundance (SALL4 ZNF1-2; [3]): 0.713

O=C1CCC(N2C(=O)C=C(Nc3ccc4cn[nH]c4c3)C2=O)C(=O)N1 (stereo not drawn) [Compound 32, 3-(3-((1H-indazol-6-yl)amino)-2,5-dioxo-2,5-dihydro-1H-pyrrol-1-yl)piperidine-2,6-dione]
IKZF2 GFP/RFP Relative Abundance (IKZF2; [1]): 1.008
IKZF2 GFP/RFP Relative Abundance (IKZF2; [2]): 0.941
IKZF2 GFP/RFP Relative Abundance (IKZF2; [3]): 0.958
GSPT1 GFP/RFP Relative Abundance (GSPT1; [1]): 0.646
GSPT1 GFP/RFP Relative Abundance (GSPT1; [2]): 0.855
GSPT1 GFP/RFP Relative Abundance (GSPT1; [3]): 0.970
TR-FRET-IKZF2 (Normalized to CC-885) (CRBN and Helios (IKZF2); [4]): 0.274
TR-FRET-IKZF2 (Normalized to CC-885) (CRBN and Helios (IKZF2); [5]): 0.213
TR-FRET-IKZF2 (Normalized to CC-885) (CRBN and Helios (IKZF2); [6]): 0.210
IKZF1 GFP/RFP Relative Abundance (IKZF1; [1]): 0.748
IKZF1 GFP/RFP Relative Abundance (IKZF1; [2]): 0.795
IKZF1 GFP/RFP Relative Abundance (IKZF1; [3]): 0.832
SALL4 ZNF1-2 GFP/RFP Relative Abundance (SALL4 ZNF1-2; [1]): 1.008
SALL4 ZNF1-2 GFP/RFP Relative Abundance (SALL4 ZNF1-2; [2]): 0.889
SALL4 ZNF1-2 GFP/RFP Relative Abundance (SALL4 ZNF1-2; [3]): 0.901

CN(C)C(=O)c1cccc(NC2=CC(=O)N(C3CCC(=O)NC3=O)C2=O)c1 (stereo not drawn) [Compound 33, 3-((1-(2,6-dioxopiperidin-3-yl)-2,5-dioxo-2,5-dihydro-1H-pyrrol-3-yl)amino)-N,N-dimethylbenzamide]
IKZF2 GFP/RFP Relative Abundance (IKZF2; [1]): 0.372
IKZF2 GFP/RFP Relative Abundance (IKZF2; [2]): 0.521
IKZF2 GFP/RFP Relative Abundance (IKZF2; [3]): 0.570
GSPT1 GFP/RFP Relative Abundance (GSPT1; [1]): 0.944
GSPT1 GFP/RFP Relative Abundance (GSPT1; [2]): 0.952
GSPT1 GFP/RFP Relative Abundance (GSPT1; [3]): 0.956
TR-FRET-IKZF2 (Normalized to CC-885) (CRBN and Helios (IKZF2); [4]): 0.584
TR-FRET-IKZF2 (Normalized to CC-885) (CRBN and Helios (IKZF2); [5]): 0.491
TR-FRET-IKZF2 (Normalized to CC-885) (CRBN and Helios (IKZF2); [6]): 0.452
IKZF1 GFP/RFP Relative Abundance (IKZF1; [1]): 0.339
IKZF1 GFP/RFP Relative Abundance (IKZF1; [2]): 0.413
IKZF1 GFP/RFP Relative Abundance (IKZF1; [3]): 0.445
SALL4 ZNF1-2 GFP/RFP Relative Abundance (SALL4 ZNF1-2; [1]): 0.783
SALL4 ZNF1-2 GFP/RFP Relative Abundance (SALL4 ZNF1-2; [2]): 0.813
SALL4 ZNF1-2 GFP/RFP Relative Abundance (SALL4 ZNF1-2; [3]): 0.860

CN(C)C(=O)c1ccc(NC2=CC(=O)N(C3CCC(=O)NC3=O)C2=O)cc1 (stereo not drawn) [Compound 34, 4-((1-(2,6-dioxopiperidin-3-yl)-2,5-dioxo-2,5-dihydro-1H-pyrrol-3-yl)amino)-N,N-dimethylbenzamide]
IKZF2 GFP/RFP Relative Abundance (IKZF2; [1]): 0.981
IKZF2 GFP/RFP Relative Abundance (IKZF2; [2]): 1.018
IKZF2 GFP/RFP Relative Abundance (IKZF2; [3]): 0.950
GSPT1 GFP/RFP Relative Abundance (GSPT1; [1]): 0.867
GSPT1 GFP/RFP Relative Abundance (GSPT1; [2]): 0.821
GSPT1 GFP/RFP Relative Abundance (GSPT1; [3]): 0.878
TR-FRET-IKZF2 (Normalized to CC-885) (CRBN and Helios (IKZF2); [4]): 0.077
TR-FRET-IKZF2 (Normalized to CC-885) (CRBN and Helios (IKZF2); [5]): 0.064
TR-FRET-IKZF2 (Normalized to CC-885) (CRBN and Helios (IKZF2); [6]): 0.059
IKZF1 GFP/RFP Relative Abundance (IKZF1; [1]): 1.042
IKZF1 GFP/RFP Relative Abundance (IKZF1; [2]): 0.984
IKZF1 GFP/RFP Relative Abundance (IKZF1; [3]): 0.904
SALL4 ZNF1-2 GFP/RFP Relative Abundance (SALL4 ZNF1-2; [1]): 0.940
SALL4 ZNF1-2 GFP/RFP Relative Abundance (SALL4 ZNF1-2; [2]): 0.944
SALL4 ZNF1-2 GFP/RFP Relative Abundance (SALL4 ZNF1-2; [3]): 0.943
